Data on two compounds can be found in patent US20250223268A1, “4-Methylsulfonylbenzamide Compound, Preparation Method, Herbicidal Composition And Use” (Jiangsu Flag Chemical Industry Co., Ltd., priority 2022, published 2025).

Holding throughout (type): in vivo
The test system of series [1] is Oryza sativa subsp. indica. Kind of series: Greenhouse herbicidal activity and crop safety comparison (Test Example 2). The method, boiled down: (§1)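 Fresh weight inhibition, banded into grades A to E (E <20%), was rated 14-21 days after foliar spraying of 3-6 leaf plants, or 14-30 days after a soil spray applied 24 h post-sowing.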
Series [2] relates to Digitaria sanguinalis. The series is described as above. The procedure, abridged:
as §1

The test system of series [3] is Zea mays. Described as above. The method, boiled down:
as §1

In series [4] the test system is Oryza sativa subsp. japonica. Described as above. The procedure, abridged: as §1
Series [5] relates to Echinochloa crusgalli. The series is described as above. The procedure, abridged: as §1
For series [6], the system named is Cyperus iria. Kind of series: Greenhouse herbicidal activity assay, post-emergence. The note with it: Post-emergence test, rate 150 g a.i./hm^2, grade by fresh weight inhibition rate. The procedure, abridged:
(§2)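 Weeds and crops grown in pots of nutrient soil in a growth chamber to the 3-6 leaf stage, then foliar-sprayed and air-dried. Fresh weight inhibition scored 14-21 days after treatment and graded A (≥80%) through E (<20%).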

In series [7] the test system is Digitaria sanguinalis. The description is as above. The note with it: Post-emergence test, rate 150 g a.i./hm^2, grade by fresh weight inhibition rate. The procedure, abridged: as §2
Series [8] relates to Eclipta prostrata. The series is described as above. The following applies: Post-emergence test, rate 150 g a.i./hm^2, grade by fresh weight inhibition rate. The procedure, abridged: as §2
For series [9], the system named is Leptochloa chinensis. The series is described as above. The note with it: Post-emergence test, rate 150 g a.i./hm^2, grade by fresh weight inhibition rate. The method, boiled down:
as §2

Series [10] concerns Echinochloa crusgalli. The series is described as above. The note with it: Post-emergence test, rate 150 g a.i./hm^2, grade by fresh weight inhibition rate. The procedure, abridged: as §2

For orientation: inhibition means the share of the control response that was lost under treatment.

In the case of `CC(C)S(=O)(=O)c1c(S(C)(=O)=O)ccc(C(=O)Nc2ncnn2C)c1Cl` [Compound 2-10, 2-chloro-3-(isopropylsulfonyl)-N-(1-methyl-H-1,2,4-triazol-5-yl)-4-(methylsulfonyl)benzamide], the “Oryza sativa subsp. indica, grading of fresh weight inhibition rate (crop safety)” value in series [1] (Rate 75 g/ha) and in [1] (Rate 150 g/ha) was “E (Fresh weight inhibition rate<20%)” throughout. Also, the inhibition at 75 g/ha lay in the range of 80 to 100% in series [2] (Digitaria sanguinalis, Rate 75 g/ha, read-out: Digitaria sanguinalis, control efficacy grading (fresh weight inhibition rate)) and 80 to 100% in [5] (Echinochloa crus-galli, Rate 75 g/ha, read-out: Echinochloa crusgalli, control efficacy grading (fresh weight inhibition rate)). Besides, the inhibition at 150 g/ha was in the range of 80 to 100% in series [2] (Digitaria sanguinalis, Rate 150 g/ha, read-out: Digitaria sanguinalis, control efficacy grading (fresh weight inhibition rate)) and 80 to 100% in series [5] (Echinochloa crus-galli, Rate 150 g/ha, read-out: Echinochloa crusgalli, control efficacy grading (fresh weight inhibition rate)). Further, the “Zea mays, grading of fresh weight inhibition rate (crop safety)” value in [3] (Rate 75 g/ha) and in series [3] (Rate 150 g/ha) was “E (Fresh weight inhibition rate<20%)” throughout. In addition, the “Oryza sativa subsp. japonica, grading of fresh weight inhibition rate (crop safety)” value in series [4] (Rate 75 g/ha) and in series [4] (Rate 150 g/ha) was “E (Fresh weight inhibition rate<20%)” throughout. Besides, the pest or weed control at 150 g/ha was in the range of 80 to 100% in series [6] (Cyperus iria, read-out: Control efficacy grade, Cyperus iria); 80 to 100% in series [7] (Digitaria sanguinalis, read-out: Control efficacy grade, Digitaria sanguinalis); 80 to 100% in series [8] (Eclipta prostrata, read-out: Control efficacy grade, Eclipta prostrata); 80 to 100% in series [9] (Dinebra chinensis, read-out: Control efficacy grade, Leptochloa chinensis); 80 to 100% in series [10] (Echinochloa crus-galli, read-out: Control efficacy grade, Echinochloa crusgalli).

`Cn1ncnc1NC(=O)c1ccc(S(C)(=O)=O)c(S(=O)(=O)C2CCCC2)c1Cl` [Compound 2-46]: the “Oryza sativa subsp. indica, grading of fresh weight inhibition rate (crop safety)” value in [1] (Rate 75 g/ha) and in series [1] (Rate 150 g/ha) was “E (Fresh weight inhibition rate<20%)” throughout. In [2] (Rate 150 g/ha), the “Digitaria sanguinalis, control efficacy grading (fresh weight inhibition rate)” value is on record as “A (Fresh weight inhibition rate≥80% to 100%)”. The “Zea mays, grading of fresh weight inhibition rate (crop safety)” value in [3] (Rate 75 g/ha) and in series [3] (Rate 150 g/ha) was “E (Fresh weight inhibition rate<20%)” each time. The “Oryza sativa subsp. japonica, grading of fresh weight inhibition rate (crop safety)” value in series [4] (Rate 75 g/ha) and in [4] (Rate 150 g/ha) was “E (Fresh weight inhibition rate<20%)” in each case. The “Echinochloa crusgalli, control efficacy grading (fresh weight inhibition rate)” value in [5] (Rate 75 g/ha) and in series [5] (Rate 150 g/ha) was “A (Fresh weight inhibition rate≥80% to 100%)” each time. The “Control efficacy grade, Cyperus iria” value in series [6] is on record as “A (Fresh weight inhibition rate≥80% to 100%)”. Besides, the “Control efficacy grade, Digitaria sanguinalis” value in series [7] is recorded as “A (Fresh weight inhibition rate≥80% to 100%)”. Besides, the “Control efficacy grade, Eclipta prostrata” value in [8] is “A (Fresh weight inhibition rate≥80% to 100%)”. The “Control efficacy grade, Leptochloa chinensis” value in series [9] was “A (Fresh weight inhibition rate≥80% to 100%)”. In addition, the “Control efficacy grade, Echinochloa crusgalli” value in [10] is recorded as “A (Fresh weight inhibition rate≥80% to 100%)”.
